Reference: ChEMBL document CHEMBL1926637, “Stereoselective synthesis and QSAR study of cytotoxic 2-(4-oxo-thiazolidin-2-ylidene)-2-cyano-N-arylacetamides” (Eur J Med Chem, 2012)
pIC50: −log10 of the molar value.

Assays:
Format in all cases: functional, cell-based
[1] = tested on: MCF7; assay: Cytotoxicity against human MCF7 cells after 48 hrs by sulforhodamine B assay; conditions: MCF7, 48 h
[2] = tested on: HepG2; assay: Cytotoxicity against human HepG2 cells after 48 hrs by sulforhodamine B assay; conditions: HepG2, 48 h
[3] = tested on: HCT-116; assay: Cytotoxicity against human HCT116 cells after 48 hrs by sulforhodamine B assay; conditions: HCT-116, 48 h

| SMILES | pIC50 [1] | pIC50 [2] | pIC50 [3] |
| --- | --- | --- | --- |
| N#C/C(C(=O)Nc1ccccc1)=c1/s/c(=C\c2ccccc2)c(=O)n1-c1ccccc1 | 4.12 | 4.96 | 4.48 |
| COc1ccc(/C=c2\s/c(=C(/C#N)C(=O)Nc3ccccc3)n(-c3ccccc3)c2=O)cc1 | 5.10 | 4.52 | 5.18 |
| N#C/C(C(=O)Nc1ccccc1)=c1/s/c(=C\c2ccccc2O)c(=O)n1-c1ccccc1 | 5.05 | 4.08 | 5.11 |
| Cc1ccc(NC(=O)/C(C#N)=c2\s/c(=C\c3ccccc3)c(=O)n2-c2ccccc2)cc1 | 4.26 | 4.42 | 4.96 |
| COc1ccc(/C=c2\s/c(=C(/C#N)C(=O)Nc3ccc(C)cc3)n(-c3ccccc3)c2=O)cc1 | < 3.97 | 4.43 | 5.00 |
| Cc1ccc(NC(=O)/C(C#N)=c2\s/c(=C\c3ccc(Cl)cc3)c(=O)n2-c2ccccc2)cc1 | 4.54 | 4.32 | 4.55 |
| Cc1ccc(NC(=O)/C(C#N)=c2\s/c(=C\c3ccccc3O)c(=O)n2-c2ccccc2)cc1 | < 3.96 | 5.08 | 5.16 |
| N#C/C(C(=O)Nc1ccc(Cl)cc1)=c1/s/c(=C\c2ccccc2)c(=O)n1-c1ccccc1 | 4.11 | 4.31 | 4.41 |
| N#C/C(C(=O)Nc1ccc(Cl)cc1)=c1/s/c(=C\c2ccc(Cl)cc2)c(=O)n1-c1ccccc1 | < 3.99 | < 3.99 | 5.04 |
| N#C/C(C(=O)Nc1ccc(Cl)cc1)=c1/s/c(=C\c2ccccc2O)c(=O)n1-c1ccccc1 | 5.10 | 4.91 | 5.16 |
| N#C/C(C(=O)Nc1ccccc1)=C1/S/C(=N\Nc2ccccc2)C(=O)N1c1ccccc1 |  | 4.73 | < 3.94 |
| COc1ccc(N/N=C2\S/C(=C(/C#N)C(=O)Nc3ccccc3)N(c3ccccc3)C2=O)cc1 | 4.76 |  | 4.33 |
| Cc1ccc(NC(=O)/C(C#N)=C2\S/C(=N\Nc3ccccc3)C(=O)N2c2ccccc2)cc1 |  | 4.62 | < 3.96 |
| COc1ccc(N/N=C2\S/C(=C(/C#N)C(=O)Nc3ccc(C)cc3)N(c3ccccc3)C2=O)cc1 |  | 4.47 | < 3.99 |
| Cc1ccc(NC(=O)/C(C#N)=C2\S/C(=N\Nc3ccc(Cl)cc3)C(=O)N2c2ccccc2)cc1 | < 3.99 |  | 4.83 |
| COc1cccc2c1C(=O)c1c(O)c3c(c(O)c1C2=O)C[C@@](O)(C(=O)CO)C[C@@H]3O[C@H]1C[C@H](N)[C@H](O)[C@H](C)O1 [DOXORUBICIN] |  | 5.13 | 5.16 |
